“Also recorded” adds a separate entry of the source.
How the values were obtained:
[1] = tested on: ischemia/reperfusion injury of the optic nerve induced by the subtenon injection of endothelin-1 (ET-1) in rabbits; assay: Ophthalmic artery resistive index (OA-RI) by Echo Color Doppler, ET-1 ischemia/reperfusion model (Example 1); format: in vivo, New Zealand white (NZW) rabbits; settings: for Ophthalmic artery resistive index (OA-RI), Baseline: prior to ET-1 dosing (time 0), before test item; for OA-RI, ET-1 (4-weeks) + Test items (2 weeks daily bid): week 4; for OA-RI, ET-1 (4-weeks) + Test items (2 weeks daily bid) / OA-RI, ET-1 (6 weeks) + Test items (4 weeks daily bid): 1% w/w, 30 microL/eye topical twice daily; for OA-RI, ET-1 (6 weeks) + Test items (4 weeks daily bid): week 6
Protocol: (§1) These experiments were performed to determine the effects of [(2S)-1-(4-{[(3-chloro-4-methoxyphenyl)methyl]amino}-5-{[(pyrimidin-2yl)methyl]carbamoyl}pyrimidin-2-yl)pyrrolidin-2-yl]methyl 6-(nitrooxy)hexanoate (Compound (I)) on ocular vascular reactivity and retinal function after ocular topical dosing in a model of ischemia/reperfusion injury of the optic nerve induced by the subtenon injection of endothelin-1 (ET-1) in rabbits.
(§2) Adult male New Zealand white (NZW) rabbits weighting 1.5-2.0 kg were used. All animals received a single 30 microL/eye topical dose of Compound (I) (1% w/w) or vehicle (Kolliphor® EL 5.0% w/w, Myrj™ S40 3.0% w/w, Kollisolv® PEG400 2.8% w/w, H3BO3 0.19% w/w, Na2HPO4·7H2O 0.51% w/w, EDTA 0.10% w/w, BAK 0.01% w/w, HCl 0.5N q.s. pH 6.6, purified water q.s. 100 g) twice daily for 4 consecutive weeks starting 2 weeks after Endothelin-1 (ET-1) first dosing.
(§3) Ischemia/reperfusion injury was induced in each animal by subtenon injection (twice/week for 6 weeks) of 200 microL of 250 nM ET-1 dissolved in water using a lacrimal cannula under anaesthesia produced by ketamine and xylazine injected intramuscularly.
Ophthalmic Artery Resistive Index (OA-RI) measurements were taken using an Echo Color Doppler prior to ET-1 treatment (baseline, time 0), and weekly thereafter till the end of the study. Pourcelot resistive index for ophthalmic artery (OA-RI) was calculated using the following formula: (OA-PSV−OA-EDV)/OA-PSV where OA-PSV and OA-EDV refer to Ophthalmic Artery Peak Systolic Velocity and Ophthalmic Artery End Diastolic Velocity, respectively.
(§4) Measurements were taken prior to ET-1 first dose (baseline, time 0), then at the end of week 2 (prior to vehicle- or Compound (I) first day-first dose) and at the end of week 6.

[2] = tested on: ischemia/reperfusion injury of the optic nerve induced by the subtenon injection of endothelin-1 (ET-1) in rabbits; assay: Electroretinogram (ERG) recording, ET-1 ischemia/reperfusion model (Example 1); format: in vivo, New Zealand white (NZW) rabbits
Protocol: as §1, §2, §3
Electroretinogram (ERGs) recording took place under topical anaesthesia. The eyes were also dilated by topical application of tropicamide 1% and, when needed, adapted to darkness for at least 2 hours prior to ERGs recording. ERGs recording were performed with standard contact lens corneal electrodes. Specifically, the dark-adapted 0.01 ERG (mostly rod response), dark-adapted 3.0 ERG (combined rod/cone response) and, light-adapted 3.0 (mostly cone response) were recorded.
as §4

[3] = tested on: endothelin-1 (ET-1)-induced ischemia/reperfusion injury of optic nerve head and retina; assay: OA-RI by Echo-Color-Doppler, Compound (I) vs des-nitro Compound (Ia) (Example 2); format: in vivo, rabbits; settings: for OA-RI, ET-1 + treatment Week 3 / OA-RI, ET-1 + treatment Week 4 / OA-RI, ET-1 + treatment Week 5 / OA-RI, ET-1 + treatment Week 6: Cpd (I) 1.0% / Cpd (Ia) 0.93% (equimolar), topical twice daily from week 3; for OA-RI, ET-1 (1st dose) Week 2: ET-1 only, before treatment; for Effect on OA-RI / ocular perfusion (in words): ET-1 rabbit model, equimolar doses, weeks 3-6; for OA-RI, Baseline Week 0: before ET-1 and treatment
Protocol: This study evaluated the ocular hemodynamic effects of repeated topical ocular dosing of Compound (I) in comparison to its des-nitro derivative Compound (Ia) administered at equimolar doses in rabbits with endothelin-1 (ET-1)-induced ischemia/reperfusion injury of optic nerve head and retina. Method: ET-1 was injected next to the optic nerve head twice/week for 6 weeks. Animals received Compound (I) (1% twice daily, 6 days/week), Compound (Ia) (0.93%, equimolar to 1% Compound (I)) or vehicle from week 3 until the end of ET-1 treatment. Functional endpoint was ophthalmic artery resistive index (OA-RI) determined using an Echo-Color-Doppler.

[4] = tested on: blood flow nearby the optic nerve head and choroid; settings: systemic dosing; British J Ophthalmology 83 (1999); cited from earlier work

Structure (SMILES) | Effect on OA-RI (in words) ([1]; ET-1 rabbit model, topical dosing) | OA-RI, ET-1 (2 weeks) ([1]; after 2 weeks ET-1 twice weekly, before first dose of test item, mean±SD) | Ophthalmic artery resistive index (OA-RI), Baseline ([1]; mean±SD) | Ophthalmic artery resistive index (OA-RI), Baseline ([1]; mean±SD, listed as Cpd (I)) | OA-RI, ET-1 (4-weeks) + Test items (2 weeks daily bid) ([1]; mean±SD) | OA-RI, ET-1 (4-weeks) + Test items (2 weeks daily bid) ([1]; mean±SD, listed as Cpd (I)) | OA-RI, ET-1 (6 weeks) + Test items (4 weeks daily bid) ([1]; mean±SD) | OA-RI, ET-1 (6 weeks) + Test items (4 weeks daily bid) ([1]; mean±SD, listed as Cpd (I)) | Effect on retinal function / ERG (in words) ([2]; ET-1 rabbit model, 4 weeks topical dosing) | ERG Amplitude, ET-1 (6 weeks) + Test items (4 weeks daily bid) ([2]; Light adapted 3.0 (Rod/cone response), 1% w/w, 30 microL/eye topical bid, ± S.D.) [μV] | ERG Amplitude, ET-1 (2 weeks) ([2]; Light adapted 3.0 (Rod/cone response), before first dose of test item, ± S.D.) [μV] | ERG Amplitude, Baseline ([2]; Light adapted 3.0 (Rod/cone response), prior to ET-1, ± S.D.) [μV] | OA-RI, ET-1 + treatment Week 3 [3] | OA-RI, ET-1 + treatment Week 4 [3] | OA-RI, ET-1 + treatment Week 5 [3] | OA-RI, ET-1 + treatment Week 6 [3] | OA-RI, ET-1 (1st dose) Week 2 [3] | Effect on OA-RI / ocular perfusion (in words) [3] | OA-RI, Baseline Week 0 [3] | Effect on ocular blood flow (in words) [4]
COc1ccc(CNc2nc(N3CCC[C@H]3COC(=O)CCCCCO[N+](=O)[O-])ncc2C(=O)NCc2ncccn2)cc1Cl [Compound (I), [(2S)-1-(4-{[(3-Chloro-4-methoxyphenyl)methyl]amino}-5-{[(pyrimidin-2-yl)methyl]carbamoyl}pyrimidin-2-yl)pyrrolidin-2-yl]methyl 6-(nitrooxy)hexanoate] | reduced ophthalmic artery resistive index (OA-RI) | 0.48 ± 0.06 | 0.40±0.08 | 0.40 ± 0.08 | 0.43±0.09 | 0.43 ± 0.09 | 0.43±0.04 | 0.43 ± 0.04 | increased photoreceptor activity; also recorded: less impairment in the ERG wave amplitude than those treated with vehicle | 131.6 ± 46.4 | 100.5 ± 33.3 | 115.9 ± 30.0 | 0.41 ± 0.01 | 0.37 ± 0.03 | 0.37 ± 0.03 | 0.39 ± 0.03 | 0.46 ± 0.02 | restored baseline OA-RI by week 6; also recorded: ameliorates ocular perfusion | 0.34 ± 0.02 | –
COc1ccc(CNc2nc(N3CCC[C@H]3COC(=O)CCCCCO)ncc2C(=O)NCc2ncccn2)cc1Cl [Compound (Ia), [(2S)-1-(4-{[(3-Chloro-4-methoxyphenyl)methyl]amino}-5-{[(pyrimidin-2-yl)methyl]carbamoyl}pyrimidin-2-yl)pyrrolidin-2-yl]methyl 6-hydroxyhexanoate, reference compound] | – | – | – | – | – | – | – | – | – | – | – | – | 0.49 ± 0.00 | 0.47 ± 0.01 | 0.51+0.02 | 0.48 ± 0.07 | 0.51 ± 0.01 | not effective; also recorded: only resulted in minor activity | 0.34 ± 0.02 | –
O=[N+]([O-])O[C@@H]1CO[C@H]2[C@@H]1OC[C@@H]2O [ISMN, isosorbide mononitrate] | – | – | – | – | – | – | – | – | – | – | – | – | – | – | – | – | – | – | – | increases blood flow nearby optic nerve head without changes to the choroidal compartment

— US20250170131A1, “METHOD FOR THE TREATMENT OF ANTERIOR ISCHEMIC OPTIC NEUROPATHY” (Nicox SA, priority 2022, published 2025)
